Experimental data as given in PubChem BioAssay (NCI).
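48-hour exposure; five concentrations; linearly interpolated endpoints. The concentration for full growth arrest is given as TGI.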

How the values were obtained:
Assay in all cases: NCI tumour cell line growth inhibition, 48 h
SF-268 CNS = tested on: SF-268 CNS
HL-60(TB) leukemia = tested on: HL-60(TB) leukemia
OVCAR-8 ovarian = tested on: OVCAR-8 ovarian
TK-10 renal = tested on: TK-10 renal
OVCAR-5 ovarian = tested on: OVCAR-5 ovarian
DU-145 prostate = tested on: DU-145 prostate
HCT-116 colon = tested on: HCT-116 colon
T-47D breast = tested on: T-47D breast
BT-549 breast = tested on: BT-549 breast
SF-539 CNS = tested on: SF-539 CNS
HT29 colon = tested on: HT29 colon
SN12C renal = tested on: SN12C renal
COLO 205 colon = tested on: COLO 205 colon
UACC-62 melanoma = tested on: UACC-62 melanoma
HOP-92 NSCLC = tested on: HOP-92 NSCLC
NCI-H460 lung = tested on: NCI-H460 lung
M14 melanoma = tested on: M14 melanoma
MOLT-4 leukemia = tested on: MOLT-4 leukemia
SK-MEL-2 melanoma = tested on: SK-MEL-2 melanoma
NCI-H522 lung = tested on: NCI-H522 lung
SK-OV-3 ovarian = tested on: SK-OV-3 ovarian
SF-295 CNS = tested on: SF-295 CNS
SR leukemia = tested on: SR leukemia
EKVX NSCLC = tested on: EKVX NSCLC
NCI-H226 lung = tested on: NCI-H226 lung
A549 NSCLC = tested on: A549 NSCLC
HCT-15 colon = tested on: HCT-15 colon
IGROV1 ovarian = tested on: IGROV1 ovarian
SNB-19 CNS = tested on: SNB-19 CNS
KM12 colon = tested on: KM12 colon
K-562 leukemia = tested on: K-562 leukemia
UO-31 renal = tested on: UO-31 renal
NCI/ADR-RES ovarian = tested on: NCI/ADR-RES ovarian
SW-620 colon = tested on: SW-620 colon
SK-MEL-5 melanoma = tested on: SK-MEL-5 melanoma
SK-MEL-28 melanoma = tested on: SK-MEL-28 melanoma
UACC-257 melanoma = tested on: UACC-257 melanoma
PC-3 prostate = tested on: PC-3 prostate
HCC-2998 colon = tested on: HCC-2998 colon
U251 CNS = tested on: U251 CNS
HS 578T breast = tested on: HS 578T breast
LOX IMVI melanoma = tested on: LOX IMVI melanoma
MCF7 breast = tested on: MCF7 breast
RPMI-8226 leukemia = tested on: RPMI-8226 leukemia
MALME-3M melanoma = tested on: MALME-3M melanoma
SNB-75 CNS = tested on: SNB-75 CNS
CCRF-CEM leukemia = tested on: CCRF-CEM leukemia
HOP-62 NSCLC = tested on: HOP-62 NSCLC
A498 renal = tested on: A498 renal
NCI-H23 lung = tested on: NCI-H23 lung
OVCAR-4 ovarian = tested on: OVCAR-4 ovarian
ACHN renal = tested on: ACHN renal
MDA-MB-435 = tested on: MDA-MB-435
CAKI-1 renal = tested on: CAKI-1 renal
MDA-N = tested on: MDA-N
RXF 393 renal = tested on: RXF 393 renal
786-0 renal = tested on: 786-0 renal
MDA-MB-231 breast = tested on: MDA-MB-231 breast
OVCAR-3 ovarian = tested on: OVCAR-3 ovarian

CCCCCOc1ccc(Nc2c(O)c3c(c(O)c2Cl)C(=O)C=CC3=O)cc1
TGI (SF-268 CNS): > 10 µM | TGI (HL-60(TB) leukemia): 3.79 µM | TGI (OVCAR-8 ovarian): > 5.87 µM | TGI (TK-10 renal): > 10 µM | TGI (OVCAR-5 ovarian): > 10 µM | TGI (DU-145 prostate): > 10 µM | TGI (HCT-116 colon): > 10 µM | TGI (T-47D breast): > 9.64 µM | TGI (BT-549 breast): > 6.94 µM | TGI (SF-539 CNS): > 10 µM | TGI (HT29 colon): > 10 µM | TGI (SN12C renal): > 10 µM | TGI (COLO 205 colon): > 8.02 µM | TGI (UACC-62 melanoma): > 10 µM | TGI (HOP-92 NSCLC): > 9.51 µM | TGI (NCI-H460 lung): > 10 µM | TGI (M14 melanoma): > 10 µM | TGI (MOLT-4 leukemia): > 10 µM | TGI (SK-MEL-2 melanoma): > 10 µM | TGI (NCI-H522 lung): 5.39 µM | TGI (SK-OV-3 ovarian): > 10 µM | TGI (SF-295 CNS): > 10 µM | TGI (SR leukemia): 6.99 µM | TGI (EKVX NSCLC): > 10 µM | TGI (NCI-H226 lung): > 10 µM | TGI (A549 NSCLC): > 10 µM | TGI (HCT-15 colon): 3.93 µM | TGI (IGROV1 ovarian): > 10 µM | TGI (SNB-19 CNS): > 10 µM | TGI (KM12 colon): > 10 µM | TGI (K-562 leukemia): > 9.65 µM | TGI (UO-31 renal): > 9.67 µM | TGI (NCI/ADR-RES ovarian): > 10 µM | TGI (SW-620 colon): > 10 µM | TGI (SK-MEL-5 melanoma): > 10 µM | TGI (SK-MEL-28 melanoma): 8.66 µM | TGI (UACC-257 melanoma): > 10 µM | TGI (PC-3 prostate): > 10 µM | TGI (HCC-2998 colon): > 7.84 µM | TGI (U251 CNS): > 10 µM | TGI (HS 578T breast): 7.39 µM | TGI (LOX IMVI melanoma): 3.72 µM | TGI (MCF7 breast): > 10 µM | TGI (RPMI-8226 leukemia): 7.76 µM | TGI (MALME-3M melanoma): > 6.38 µM | TGI (SNB-75 CNS): > 10 µM | TGI (CCRF-CEM leukemia): > 10 µM | TGI (HOP-62 NSCLC): > 10 µM | TGI (A498 renal): > 10 µM | TGI (NCI-H23 lung): > 6.51 µM | TGI (OVCAR-4 ovarian): 9.97 µM | TGI (ACHN renal): > 10 µM | TGI (MDA-MB-435): 5.53 µM | TGI (CAKI-1 renal): > 10 µM | TGI (MDA-N): > 9.3 µM | TGI (RXF 393 renal): > 10 µM | TGI (786-0 renal): > 10 µM | TGI (MDA-MB-231 breast): > 8.25 µM | TGI (OVCAR-3 ovarian): > 6.54 µM
